From ChEMBL document CHEMBL5357013, “Identification of Spiro[chromene-2,4'-piperidine]s as Potent, Selective, and Gq-Biased 5-HT2C Receptor Partial Agonists” (ACS Med Chem Lett, 2024)
Activity calls are given as the source filed them. The calls are words filed in the database; no cut-off is given here.

How the values were obtained:
[1] = molecular target: 5-hydroxytryptamine receptor 2A (Homo sapiens) (UniProt P28223); experiment: Partial agonist activity at human 5-HT2AR expressed in human Flp-In-T-REx-293 cells assessed as increase in calcium flux upto 10 uM incubated for 60 mins followed by incubation for 30 mins in dark by Flou-4 dye based FLIPR assay; type: functional, cell-based; settings: time 90.0 min
[2] = molecular target: T1, 5-hydroxytryptamine receptor 2C (Homo sapiens, UniProt P28335); experiment: Partial agonist activity at human 5-HT2CR expressed in human Flp-In-T-REx-293 cells assessed as increase in calcium flux incubated for 60 mins followed by incubation for 30 mins in dark by Flou-4 dye based FLIPR assay; type: functional, cell-based
T1 sequence (P28335 whole entry): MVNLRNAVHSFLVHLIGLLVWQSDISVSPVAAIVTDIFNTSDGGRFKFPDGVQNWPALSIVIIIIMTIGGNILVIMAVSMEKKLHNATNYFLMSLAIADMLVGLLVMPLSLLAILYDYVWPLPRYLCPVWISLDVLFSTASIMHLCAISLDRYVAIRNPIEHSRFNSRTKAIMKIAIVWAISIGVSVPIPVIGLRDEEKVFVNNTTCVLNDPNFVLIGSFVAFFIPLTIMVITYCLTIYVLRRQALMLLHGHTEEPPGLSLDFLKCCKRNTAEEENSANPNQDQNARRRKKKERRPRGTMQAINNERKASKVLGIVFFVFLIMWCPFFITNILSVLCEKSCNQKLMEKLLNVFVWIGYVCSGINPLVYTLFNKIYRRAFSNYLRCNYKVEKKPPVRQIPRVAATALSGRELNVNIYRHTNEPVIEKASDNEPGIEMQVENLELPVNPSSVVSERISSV

[3] = molecular target: T2, hERG (KCNH2) (Homo sapiens, UniProt Q12809); experiment: Inhibition of hERG expressed in CHO cells at 10 uM by automated patch clamp method relative to control; type: toxicity, cell-based; settings: CHO cells that express hERG
[4] = molecular target: T3, 5-hydroxytryptamine receptor 2C (Homo sapiens) (UniProt P28335); experiment: Partial agonist activity at human 5-HT2CR expressed in human Flp-In-T-REx-293 cells assessed as increase in calcium flux by measuring maximal efficacy incubated for 60 mins followed by incubation for 30 mins in dark by Flou-4 dye based FLIPR assay relative to control; type: functional, cell-based; settings: time 90.0 min
T3 sequence (whole entry): T1 sequence (P28335 whole entry)

[5] = molecular target: T3, 5-hydroxytryptamine receptor 2C (Homo sapiens); experiment: Partial agonist activity at Rluc-tagged 5-HT2CR (unknown origin) transfected in HEK293T cells assessed as beta-arrestin-2 recruitment incubated for 10 mins by coelenterazine 400a based BRET assay; type: functional, cell-based
[6] = molecular target: T3, 5-hydroxytryptamine receptor 2C (Homo sapiens); experiment: Partial agonist activity at human 5-HT2CR expressed in human Flp-In-T-REx-293 cells assessed as increase in calcium flux upto 10 uM incubated for 60 mins followed by incubation for 30 mins in dark by Flou-4 dye based FLIPR assay; type: functional, cell-based; settings: time 90.0 min
[7] = molecular target: T4, 5-hydroxytryptamine receptor 2B (Homo sapiens, UniProt P41595); experiment: Partial agonist activity at human 5-HT2BR expressed in human Flp-In-T-REx-293 cells assessed as increase in calcium flux incubated for 60 mins followed by incubation for 30 mins in dark by Flou-4 dye based FLIPR assay; type: functional, cell-based
[8] = molecular target: T4, 5-hydroxytryptamine receptor 2B; experiment: Partial agonist activity at human 5-HT2BR expressed in human Flp-In-T-REx-293 cells assessed as increase in calcium flux by measuring maximal efficacy incubated for 60 mins followed by incubation for 30 mins in dark by Flou-4 dye based FLIPR assay relative to control; type: functional, cell-based; settings: time 90.0 min
[9] = molecular target: T1, 5-hydroxytryptamine receptor 2C; experiment: Agonist activity at human 5-HT2CR expressed in human Flp-In-T-REx-293 cells assessed as increase in calcium flux incubated for 60 mins followed by incubation for 30 mins in dark by Flou-4 dye based FLIPR assay; type: functional, cell-based
[10] = molecular target: T3, 5-hydroxytryptamine receptor 2C (Homo sapiens); experiment: Agonist activity at human 5-HT2CR expressed in human Flp-In-T-REx-293 cells assessed as increase in calcium flux by measuring maximal efficacy incubated for 60 mins followed by incubation for 30 mins in dark by Flou-4 dye based FLIPR assay; type: functional, cell-based; settings: filed as agonist, time 90.0 min
[11] = molecular target: T4, 5-hydroxytryptamine receptor 2B; experiment: Partial agonist activity at human 5-HT2BR expressed in human Flp-In-T-REx-293 cells assessed as increase in calcium flux upto 10 uM incubated for 60 mins followed by incubation for 30 mins in dark by Flou-4 dye based FLIPR assay; type: functional, cell-based; settings: time 90.0 min
[12] = molecular target: T2, hERG (KCNH2); experiment: Inhibition of hERG at 10 uM relative to control; type: toxicity

T4 sequence (P41595 whole entry): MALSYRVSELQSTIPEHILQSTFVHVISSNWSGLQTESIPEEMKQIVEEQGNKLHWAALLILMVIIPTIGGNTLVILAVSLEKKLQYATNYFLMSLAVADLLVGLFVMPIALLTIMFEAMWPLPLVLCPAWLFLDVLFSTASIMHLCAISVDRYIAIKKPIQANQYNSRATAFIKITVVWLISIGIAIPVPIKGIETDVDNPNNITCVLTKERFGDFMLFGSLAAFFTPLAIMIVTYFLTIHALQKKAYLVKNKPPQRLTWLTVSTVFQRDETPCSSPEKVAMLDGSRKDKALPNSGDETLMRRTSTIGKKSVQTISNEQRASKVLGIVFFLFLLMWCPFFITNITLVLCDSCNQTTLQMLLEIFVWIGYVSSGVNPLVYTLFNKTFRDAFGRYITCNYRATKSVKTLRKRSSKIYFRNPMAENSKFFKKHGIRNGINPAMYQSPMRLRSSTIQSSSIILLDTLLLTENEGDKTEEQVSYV
Sequence of 5-hydroxytryptamine receptor 2A (Homo sapiens) (P28223 whole entry): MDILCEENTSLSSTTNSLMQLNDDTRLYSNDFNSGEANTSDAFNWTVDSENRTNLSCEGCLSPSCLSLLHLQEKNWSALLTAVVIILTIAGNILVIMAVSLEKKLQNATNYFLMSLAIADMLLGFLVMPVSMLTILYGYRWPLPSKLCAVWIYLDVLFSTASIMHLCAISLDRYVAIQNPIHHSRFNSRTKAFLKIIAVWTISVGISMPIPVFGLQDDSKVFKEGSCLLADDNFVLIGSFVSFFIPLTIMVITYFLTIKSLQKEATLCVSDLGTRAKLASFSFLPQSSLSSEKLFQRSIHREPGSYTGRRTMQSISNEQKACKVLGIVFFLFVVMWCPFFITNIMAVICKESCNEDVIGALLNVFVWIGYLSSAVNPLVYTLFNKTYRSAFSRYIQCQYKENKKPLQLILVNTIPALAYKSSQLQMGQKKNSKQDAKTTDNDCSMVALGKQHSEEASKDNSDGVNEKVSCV
T2 sequence (Q12809 whole entry): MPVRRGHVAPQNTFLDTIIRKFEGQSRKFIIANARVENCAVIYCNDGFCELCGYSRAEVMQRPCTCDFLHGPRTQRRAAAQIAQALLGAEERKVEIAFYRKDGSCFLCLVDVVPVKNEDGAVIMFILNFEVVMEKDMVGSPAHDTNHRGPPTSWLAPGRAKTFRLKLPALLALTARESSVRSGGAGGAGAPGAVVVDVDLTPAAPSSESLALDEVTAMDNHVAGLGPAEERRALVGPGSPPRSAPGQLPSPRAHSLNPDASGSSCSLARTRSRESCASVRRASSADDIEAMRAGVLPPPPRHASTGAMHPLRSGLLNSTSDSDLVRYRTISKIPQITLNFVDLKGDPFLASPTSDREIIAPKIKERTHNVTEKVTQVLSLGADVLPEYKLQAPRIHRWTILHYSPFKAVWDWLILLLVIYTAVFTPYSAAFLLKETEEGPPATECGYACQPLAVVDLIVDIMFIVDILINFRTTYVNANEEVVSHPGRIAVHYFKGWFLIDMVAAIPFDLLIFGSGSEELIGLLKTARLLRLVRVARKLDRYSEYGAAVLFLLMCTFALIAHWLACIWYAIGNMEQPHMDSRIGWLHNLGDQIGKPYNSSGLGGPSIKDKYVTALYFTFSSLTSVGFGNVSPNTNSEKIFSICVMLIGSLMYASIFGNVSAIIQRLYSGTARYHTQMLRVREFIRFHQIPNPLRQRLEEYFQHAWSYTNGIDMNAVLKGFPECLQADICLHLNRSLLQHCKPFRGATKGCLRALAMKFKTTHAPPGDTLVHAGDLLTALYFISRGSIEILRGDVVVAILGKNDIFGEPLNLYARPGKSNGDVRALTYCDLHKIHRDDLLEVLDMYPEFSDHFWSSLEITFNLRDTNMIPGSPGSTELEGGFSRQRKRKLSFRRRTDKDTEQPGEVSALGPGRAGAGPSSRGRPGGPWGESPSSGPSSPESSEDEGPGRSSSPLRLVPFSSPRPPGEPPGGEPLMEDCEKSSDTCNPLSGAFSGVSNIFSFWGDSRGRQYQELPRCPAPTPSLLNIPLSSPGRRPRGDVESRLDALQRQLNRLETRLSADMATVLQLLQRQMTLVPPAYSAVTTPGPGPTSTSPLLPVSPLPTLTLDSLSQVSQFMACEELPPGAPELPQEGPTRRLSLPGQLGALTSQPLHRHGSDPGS

SMILES	EC50 ([2]; read-out: EC50)	Emax ([4]; filed as partial agonist)	Activity [6]	also measured
Clc1ccc2c(c1)OC1(C=C2)CCNCC1	121 nM	71.1%		Activity [1]: inactive; inhibition at 10 µM [3]: 43.9%; Activity [5]: inactive
C[C@H]1CC2(C=Cc3ccc(Cl)cc3O2)CCN1 (stereo in doubt; 31b)			inactive	
Cc1ccc2c(c1)C=CC1(CCNCC1)O2			inactive	
Cc1cccc2c1OC1(C=C2)CCNCC1	2060 nM			Emax [4]: 22.4%
Clc1ccc2c(c1)C=CC1(CCNCC1)O2	215 nM			EC50 ([2]; read-out: pEC50 (converted)): 2000 nM; Emax [4]: 36.3%
C1=CC2(CCNCC2)Oc2ccccc21	147 nM	85.9%		EC50 [7]: 897 nM; Activity [1]: inactive; Emax [8]: 19.4%; Activity [5]: inactive
CC1CNCCC12C=Cc1ccc(Cl)cc1O2 (stereo in doubt; 29b) [listing 1 of 2 here]	2650 nM			
Clc1ccc2c(c1)OC1(C=C2)CCCNCC1 (stereo not given)	3110 nM			Emax [4]: 26.2%
Fc1ccc2c(c1)C=CC1(CCNCC1)O2	3060 nM	49.5%		
COc1cccc2c1C=CC1(CCNCC1)O2			inactive	
O=C1CC2(CCNCC2)Oc2ccccc21			inactive	
COc1ccc2c(c1)OC1(C=C2)CCNCC1	3740 nM	50.4%		
c1ccc2c(c1)CCC1(CCNCC1)O2			inactive	
Clc1ccc2c(c1)OC1(C=C2)CC2CCC(C1)N2 (stereo not given)			inactive	
OC1CC2(CCNCC2)Oc2ccccc21 (stereo not given)			inactive	
Clc1cccc2c1C=CC1(CCNCC1)O2				EC50 [7]: 68.4 nM; Activity [1]: inactive; EC50 [9]: 31 nM; Emax [10]: 81.9%; Emax [8]: 34.1%
Clc1ccc2c(c1Cl)OC1(C=C2)CCNCC1			inactive	
Fc1ccc2c(c1)OC1(C=C2)CCNCC1				EC50 [9]: 158 nM; Emax [10]: 91.4%

SMILES	EC50 ([2]; read-out: EC50)	Emax ([4]; filed as partial agonist)	Activity [6]	also measured
CC1CNCCC12C=Cc1ccc(Cl)cc1O2 (stereo in doubt; 29a) [listing 1 of 2 here]		80%		
Clc1ccc2c(c1)OC1(C=C2)CNC1	2490 nM	58.5%		
C[C@H]1CC2(C=Cc3ccc(Cl)cc3O2)CCN1 (stereo in doubt; 31a)			inactive	
Cc1cccc2c1C=CC1(CCNCC1)O2	170 nM	55.2%		
NC1CCC2(C=Cc3ccc(Cl)cc3O2)CC1 (stereo not given)	3380 nM	69%		
CC1CNCCC12C=Cc1ccc(Cl)cc1O2 (stereo in doubt; 29a) [listing 2 of 2 here]	476 nM			
Clc1ccc2c(c1)OC1(C=C2)CCNC1 (stereo not given)	330 nM	44.7%		
Fc1cccc2c1OC1(C=C2)CCNCC1	929 nM	64.4%		
CC1CNCCC12C=Cc1ccc(Cl)cc1O2 (stereo in doubt; 29b) [listing 2 of 2 here]		73.7%		
Clc1cc(Cl)c2c(c1)OC1(C=C2)CCNCC1			inactive	
Brc1ccc2c(c1)OC1(C=C2)CCNCC1	488 nM	72.6%		
Clc1cccc2c1OC1(C=C2)CCNCC1	150 nM	75.7%		EC50 [7]: 470 nM; Activity [1]: inactive; Emax [8]: 30.9%
COc1ccc2c3c1-c1ccccc1CC3NCC2 (stereo not given)				Activity [1]: inactive; EC50 ([2]; read-out: pEC50 (converted)): 100 nM; Activity [11]: inactive; inhibition at 10 µM [12]: 92.7%
Cc1ccc2c(c1)OC1(C=C2)CCNCC1			inactive	
Clc1ccc2c(c1)OC1(C=C2)CCCNC1 (stereo not given)			inactive	
C[C@@H]1CC2(C=Cc3ccc(Cl)cc3O2)CCN1 (stereo not given in full)	950 nM	82.5%	inactive	
COc1ccc2c(c1)C=CC1(CCNCC1)O2			inactive	
